The assay has as its system serum calcium concentration. The assay can be described thus: Biological assay of calcitonin analogs in vivo: reduction of serum calcium concentration, 2×2 parallel line assay. Also on record: species or system Rats. The following applies: standard salmon calcitonin used in the assay. As for the experimental part:
The biological potency of [1,7-Di-Cys(Acm)]salmon calcitonin was determined by comparing the reduction of serum calcium concentration which followed administration by graded doses of [1,7-Di-Cys(Acm)]SCT and synthetic salmon calcitonin standard. Rats were divided into four groups of seven animals, and each group was assigned at random to a dose of standard or test solution. Low and high doses were chosen from the linear portion of the dose-response curve. For the salmon calcitonin standard, the values were 0.7 and 2.1 mcg. peptide/100 g. body weight (BW). This dose approximates 3 and 9 MU/100 g. BW. Peptides were given by subcutaneous injection (0.2 ml/100 g. BW) and blood was withdrawn 1 hour later for serum calcium determination. Sera are processed and analyzed within two hours of collection. […]. Results were analyzed by a 2×2 parallel line assay [Gaddum, J. H., J. Pharm. Pharmacol., 6, 345 (1953)]. The standard salmon calcitonin used was independently determined to contain greater than 4,000 IU/mg. [1,7-Di-Cys(Acm)]SCT assayed at 4250 IU/mg.

`CC(C)C[C@H](NC(=O)[C@H](CCCCN)NC(=O)CNC(=O)[C@H](CC(C)C)NC(=O)[C@@H](NC(=O)[C@@H]1CSSC[C@H](N)C(=O)N[C@@H](CO)C(=O)N[C@@H](CC(N)=O)C(=O)N[C@@H](CC(C)C)C(=O)N[C@@H](CO)C(=O)N[C@@H]([C@@H](C)O)C(=O)N1)C(C)C)C(=O)N[C@@H](CO)C(=O)N[C@@H](CCC(N)=O)C(=O)N[C@@H](CCC(=O)O)C(=O)N[C@@H](CC(C)C)C(=O)N[C@@H](Cc1c[nH]cn1)C(=O)N[C@@H](CCCCN)C(=O)N[C@@H](CC(C)C)C(=O)N[C@@H](CCC(N)=O)C(=O)N[C@H](C(=O)N[C@@H](Cc1ccc(O)cc1)C(=O)N1CCC[C@H]1C(=O)N[C@@H](CCCNC(=N)N)C(=O)N[C@H](C(=O)N[C@@H](CC(N)=O)C(=O)N[C@H](C(=O)NCC(=O)N[C@@H](CO)C(=O)NCC(=O)N[C@H](C(=O)N1CCC[C@H]1C(N)=O)[C@@H](C)O)[C@@H](C)O)[C@@H](C)O)[C@@H](C)O` [standard salmon calcitonin, Salmon calcitonin]: the “biological potency of the standard, independently determined” value is “greater than 4,000 IU/mg”.

The values above are taken from patent publication US4659804A, “(Bis-1,7-S-acetamidomethyl-L-cysteine)salmon calcitonin” (Armour Pharmaceutical Company, priority 1984, dated 1987).
